From patent publication US20210253598A1, “ARYL ANNULATED MACROCYCLIC INDOLE DERIVATIVES” (priority 2017, published 2021)
pIC50: −log10 of the molar value. Structures can show the parent of a compound that is named as a salt. Where two headings read alike, the source gives them in different places.

Legend:
MCL1 protein = molecular target: T1, MCL1 protein (Homo sapiens, UniProt Q07820); assay: PIxEL: protein-protein interaction in permeabilized cells by ELISA (Assay 5); assay type: cell-based; settings: permeabilized RKO cells, biotin-BIM BH3 peptide 0.2 μM, serum free
T1 construct: this assay uses full length endogenous MCL1 protein at mitochondria outer membrane; endogenous in cells; host or cells: RKO colon cancer cell line
Protocol: PIxEL: Protein-Protein Interaction in Permeabilized Cells by ELISA
Most MCL1 protein molecules are localized at the mitochondria outer membrane and sequester pro-apoptotic proteins through binding of their BCL2 homology domain 3 (BH3 domain). MEB buffer (150 mM mannitol, 10 mM HEPES pH 7.5, 50 mM KCl, 20 μM EDTA, 20 μM EGTA, 5 mM potassium succinate, 0.1% protease-free BSA (SIGMA) with low dose digitonin (0.002%) permeabilizes plasma membrane while leaves live mitochondria, where MCL1 maintains its native localization and conformation. Unlike biophysical assays (e.g. TR-FRET) that use truncated recombinant MCL1 protein, this assay uses full length endogenous MCL1 protein at mitochondria outer membrane. It measures the interaction between MCL1 protein and biotinylated BIM BH3 peptide. Compounds can compete with BIM BH3 peptide to bind to MCL1 protein.
On day 1, RKO colon cancer cell line cells were plated at 0.8 million cells/ml, 100 μl/well in 96-well flat bottom TC plates (Corning). […] Each plate was tapped to make sure liquid covering entire bottom of wells and incubate at 37° C. overnight.
On the second day, MCL1 antibody was washed from ELISA plate. 250 μl Odyssey® Blocking Buffer (PBS) (Li-Cor) was added to each well, incubated at room temperature for at least 1 hour, then washed once with 250 μl 1×PBST. Plates with RKO cells were gently washed once with 100 μl/well PBS, once with 100 μl/well MEB buffer without digitonin, then 100 μl of MEB buffer with 0.002% digitonin was gently added to each well. Compounds were added with HP Tecan compound dispenser in 3-fold dilution series, highest dose 30 μM, 10-dose per compound in quadruplicates. Biotin-BIM peptide (synthesized by 21st Century) was added with HP Tecan compound dispenser at 0.2 μM immediately after the addition of compounds. Plates were rocked for 1 h at room temperature. Then MEB buffer was aspirated and 50 μl of CHAPS buffer (50 mM Tris-Cl, pH 7.4, 150 mM NaCl, 1% CHAPS, 1 mM EDTA, 1 mM EGTA, complete protease inhibitors (Roche), PhosSTOP (Roche)) was added to each well. Plates were rocked for 1 hour at 4° C., then 45 μl cell lysate from each well were transferred to ELISA plates coated with MCL1 antibody. Plates were incubated overnight in the cold room with rocking.
On the third day, ELISA plates were washed once with 250 μl 1×PBST. Streptavidin-poly-HRP (Thermo Fisher Scientific) was diluted to 20 ng/ml in Odyssey blocking buffer plus 0.05% Triton-100, and 100 μl was added to each well of the ELISA plate. Plates were incubated at RT for 1 hour with rocking, then washed with 100 μL 1×PBST for 3 times. Each SuperSignal ELISA Femto Maximum Sensitivity substrate was added to a 50-ml tube and mixed, then 100 μl of mixed substrate was added to each well. Plates were shaken for 1 minute then luminescence was measured by Envision plate reader […]. Signal of each well were normalized by no-compound control and no-cell control. IC50 was calculated using Graphic Pad PRISM software.

BCL-2 = BCL-2 (Homo sapiens, UniProt P10415); assay: Protein-protein interaction assay BCL-2/Bad BH3 peptide, TR-FRET (BCL-2 assay, Assay 3); assay type: binding; settings: His-BCL-2 / Bad BH3 peptide, median
BCL-XL = BCL-XL (Homo sapiens, UniProt Q07817); assay: Protein-protein interaction assay BCL-XL/Bad BH3 peptide, TR-FRET (BCL-XL assay, Assay 2); assay type: binding; settings: His-BCL-XL / Bad BH3 peptide, median
Protocol: Protein-Protein Interaction Assay: BCL-XL/Bad BH3 Peptide (BCL-XL Assay)
The dose-dependent inhibition by the compounds described in this invention of the interaction between BCL-XL and the BH3 domain of Bad (both human) was determined using a steady state binding competition assay with time-resolved fluorescence energy transfer (TR-FRET) readout. For that purpose BCL-XL (amino acids 1-212, C-terminal fused to a hexahistidine (6×His) tag (SEQ ID 3) and a synthetic Bad BH3-derived peptide of sequence Biotin-PEG2-PEG2-[sequence]-Nle-[sequence]-amide (SEQ ID 4) served as protein receptor and tracer ligand respectively. The recombinant BCL-XL protein (expressed in E. coli) was purchased from BPS Bioscience (San Diego, Calif., USA). The Bad BH3-derived peptide can be obtained from e.g. Biosyntan (Berlin, Germany).
For that, 100-fold concentrated DMSO solutions were prepared by serial dilutions (1:3.4) of a 2 mM stock solution in a clear, 384-well microtiter plate (Greiner Bio-One, Frickenhausen, Germany). From there, 50 nl were transferred in a dark test plate (Greiner Bio-One, Frickenhausen, Germany). The assay was initiated by addition of 2 μl of a 2,5-fold concentrated His-BCL-XL solution (usually for a 1 nM end concentration in 5 μl reaction volume) in aqueous assay buffer [50 mM Tris/HCl pH 7, 100 mM sodium chloride (NaCl), 50 mM potassium fluoride (KF), 0.005% Tween-20, 2 mM DTT, 0.1% bovine gamma globulin (BGG)] to the compounds in the assay plate. This was followed by a 10-minute incubation step at 22° C. for pre-equilibration of the putative complex between His-BCL-XL and the compounds.
The mixture was incubated in the dark for one hour at 22° C. and then overnight at 4° C. The formation of BCL-XL/Bad complexes was determined by measuring the resonance energy transfer of the anti-His- Eu-cryptate antibody to the streptavidin-XL665 present in the reaction. For that purpose, the fluorescence emission at 620 nm and 665 nm after excitation at 330-350 nm was measured in a TR-FRET measuring instrument, for instance a Rubystar or a Pherastar (both from BMG Lab Technologies, Offenburg, Germany) or a Viewlux (Perkin-Elmer). The ratio of the emission at 665 nm and at 622 nm was used as indicator of the amount of BCL-XL/Bad complexes present.
The resulting data (ratio) were normalized, taking 0% inhibition as the mean value of control measurements (usually 32 data points) where all reagents were included. In this case 50 nl DMSO were used instead of compounds. […] IC50 values were determined by regression analysis based on a 4 parameter equation (minimum, maximum, IC50, Hill; Y=Max+(Min−Max)/(1+(X/IC50)^Hill) using the Screener Software (Genedata).

AMO-1 = assay: Anti-proliferative effect in AMO-1 cells, CellTiter-Glo (Assay 7); assay type: cell-based
Procedure, shortened: (§1)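 Proliferation is measured as luminescence from CellTiter-Glo after cells grow with compound for 72 h in a humidified 37 °C incubator. A reference plate read at time zero supplies the day 0 baseline, and DMSO wells serve as control for IC50 calculation.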

MV-4-11 = assay: Anti-proliferative effect in MV-4-11 cells, CellTiter-Glo (Assay 7); assay type: cell-based
Procedure, shortened: as §1

SUDHL5 = assay: Anti-proliferative effect in SUDHL5 cells, CellTiter-Glo (Assay 7); assay type: cell-based
Procedure, shortened: as §1

Sequence of BCL-2 (P10415 1-211): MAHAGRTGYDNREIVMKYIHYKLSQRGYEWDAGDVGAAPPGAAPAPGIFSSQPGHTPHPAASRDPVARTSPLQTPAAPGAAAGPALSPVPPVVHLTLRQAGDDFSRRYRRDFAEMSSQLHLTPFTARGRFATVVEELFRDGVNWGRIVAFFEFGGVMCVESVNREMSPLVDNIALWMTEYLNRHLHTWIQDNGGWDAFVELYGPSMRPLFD
Sequence of BCL-XL (Q07817 1-212): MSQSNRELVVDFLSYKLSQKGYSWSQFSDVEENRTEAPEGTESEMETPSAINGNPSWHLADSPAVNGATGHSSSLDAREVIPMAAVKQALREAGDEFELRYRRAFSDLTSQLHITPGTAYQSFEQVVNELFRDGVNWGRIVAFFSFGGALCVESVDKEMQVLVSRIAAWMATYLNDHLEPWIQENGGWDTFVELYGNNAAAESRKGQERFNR
T1 sequence (Q07820 whole entry): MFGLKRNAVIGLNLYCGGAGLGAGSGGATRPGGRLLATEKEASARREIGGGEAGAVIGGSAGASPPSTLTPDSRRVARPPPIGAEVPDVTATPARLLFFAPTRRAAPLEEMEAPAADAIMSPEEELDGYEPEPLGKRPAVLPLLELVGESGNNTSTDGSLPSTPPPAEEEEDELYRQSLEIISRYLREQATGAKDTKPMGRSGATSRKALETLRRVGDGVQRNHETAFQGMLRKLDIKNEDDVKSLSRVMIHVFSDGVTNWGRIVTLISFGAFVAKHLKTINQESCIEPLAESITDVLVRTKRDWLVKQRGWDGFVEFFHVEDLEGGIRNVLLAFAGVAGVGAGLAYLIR

Compound | IC50 (MCL1 protein; PIxEL [M] (median)) | IC50 (BCL-2) | IC50 (BCL-XL) | pIC50 (AMO-1; read-out: Antiproli AMO-1; AMO-1, 72 hours incubation, CellTiter-Glo; several values per example) | pIC50 (MV-4-11; read-out: Antiproli MV-4-11; MV-4-11, 72 hours incubation, CellTiter-Glo; several values per example) | IC50 (SUDHL5; read-out: Antiproli SUDHL5 [M] (median), SUDHL5, 72 hours incubation, CellTiter-Glo) | IC50 (MCL1 protein; median, read-out: PIxEL [M] (median)) | pIC50 (AMO-1; AMO-1, 72 hours incubation, CellTiter-Glo; several values per example; read-out: Antiproli AMO-1) | pIC50 (MV-4-11; MV-4-11, 72 hours incubation, CellTiter-Glo; several values per example; read-out: Antiproli MV-4-11) | IC50 (SUDHL5; SUDHL5, 72 hours incubation, CellTiter-Glo, median, read-out: Antiproli SUDHL5 [M] (median))
CCc1c2c(nn1C)COCc1ccccc1Cn1c(C(=O)O)c(CCCOc3cccc4cc(F)ccc34)c3ccc(Cl)c-2c31 (single isomer, unassigned; enantiomer 1) [Example 55, (−)-3-Chloro-4-ethyl-17-{3-[(6-fluoronaphthalen-1-yl)oxy]propyl}-5-methyl-5,7,9,14-tetrahydro-indolo[7,1-fg]pyrazolo[3,4-d][2,8]benzoxazacycloundecine-16-carboxylic Acid N-ethylethanamine Salt (Enantiomer 1)] | 3.11e-07 M | 18000 nM | > 20000 nM | 5.92 | 6.02 | 1e-06 M | – | – | – | –
CCc1nn(C)c2c1-c1c(Cl)ccc3c(CCCOc4cccc5cc(F)ccc45)c(C(=O)O)n(c13)Cc1ccccc1COC2 (single isomer, unassigned; enantiomer 1) [Example 58, (+)-3-Chloro-4-ethyl-17-{3-[(6-fluoronaphthalen-1-yl)oxy]propyl}-6-methyl-6,7,9,14-tetrahydro-indolo[7,1-fg]pyrazolo[3,4-d][2,8]benzoxazacycloundecine-16-carboxylic acid-N-ethylethanamine Salt (Enantiomer 1)] | – | 10600 nM | 17300 nM | – | – | – | 8.34e-07 M | 5.79 | 5.87 | 1.2e-06 M
